Consider 1 compound from US12286418B2, “Compounds and methods for treating or preventing bacterial infections” (priority 2019, dated 2025).

Entries after “also recorded” stand apart in the source; their conditions may differ. Like-named read-outs stand apart in the source and are kept apart here.

Assay [1] deals with T1, OXA-24 (Acinetobacter baumannii, UniProt Q8RLA6).
T1 construct: His-tag (N, cleaved yes); made in house; host or cells: E. coli BL21 (DE3), pET28a
Kind of assay: Inhibition of other OXA enzymes (nitrocefin reporter): OXA-24. Format: biochemical. How it is done: (§1) Compounds were tested for inhibition of a given OXA enzyme from hydrolyzing nitrocefin using a Tecan plate reader. […] A control with no compound was included in each run. For each compound concentration, the velocity of nitrocefin hydrolysis was determined at 482 nm and fit to the Morrison equation. […] The average Ki of separate experiments, each of which consisted of duplicate runs, is reported and error was quantified as the standard deviation.
(§2) The high sequence diversity of class D β-lactamases has made it difficult to find a class-wide inhibitor. The inhibition activity of CDD-97 was tested against other OXA-enzymes of varying sequence identity, to assess its spectrum of activity (Table 2). OXA-10 is regarded as the canonical OXA, however it is not a major clinical threat as it mainly hydrolyzes penicillins. OXA-58 is another carbapenemase unable to hydrolyze extended-spectrum cephalosporins like OXA-48. Both OXA-48 and OXA-58 are predominantly found in gram-negative bacteria, however OXA-48 is prevalent in the Enterobacteriaceae family (mainly Klebsiella pneumoniae), while OXA-58 is found in the Moraxellaceae family (mainly Acintobacter baumannii). While K. pneumoniae is more rampant in the clinics and most OXA-mediated carbapenem is due to OXA-48, A. baumannii nosocomial infections are a growing issue. OXA-163 is an OXA-48 like enzyme also prevalent in Enterobacteriaceae. […]

The subject of assay [2] is E. coli MG1655OXA-48. Kind of assay: Bacterial susceptibility (MIC, broth microdilution) of E. coli expressing OXA-48. Format: cell-based. The following applies: for MIC: Escherichia coli. How it is done: Bacterial susceptibility was specifically tested using minimum inhibitory concentration assays. Susceptibility assays were performed with E. coli strains using broth in a microplate set up. Two-fold dilutions of antibiotic and/or inhibitor were used. For susceptibility tests, bacterial strains were transformed with plasmids containing OXA-48 with its endogenous signal sequence for periplasmic migration (cloned into pTP123 vector) (Majiduddin & Palzkill, 2003, Antimicrob. Agents Chemother. 47:1062-1067). pTP123 was cut with XbaI and SacI and the linearized fragment was assembled using Gibson assembly (New England Biolabs, Ipswich, MA) its signal sequence cloned in by using Gibson assembly. Bacteria were grown in Mueller-Hinton broth with 12.5 μg/mL chloramphenicol (plasmid marker) overnight. An overnight culture was diluted 1:10^4 into the final well solutions (100 uL total) and incubated for 16-18 hours. After incubation, microplates were read using a Tecan plate reader at absorbance 600. Growth was objectively defined as yielding an absorbance ≥2 times the absorbance of the negative control (media and no culture). Experiments were repeated with new bacterial inoculums each time.
Effective β-lactamase inhibitors synergize with β-lactam antibiotics and ultimately lower the minimum inhibitory concentration (MIC) of antibiotic needed to kill the bacteria. MIC studies were performed with ampicillin (AMP), a β-lactam antibiotic readily hydrolyzed by OXA-48, against E. coli strain MG1655 expressing OXA-48 (MG1655OXA-48). The OXA-48 plasmid construct contained the endogenous signal sequence of OXA-48 for secretion to the periplasm, which was expressed under a trc-promoter, allowing leaky expression in the absence of IPTG inducer. All MICs were performed by broth microdilution with 2-fold dilutions of antibiotic and/or inhibitor (FIG. 6A). The ampicillin (AMP) and imipenem (IMP) MICs were separately determined for a range of CDD-97 and avibactam concentrations. […] In the absence of bacteria, the media (Mueller Hinton) gives an absorbance reading of 0.04 so absorbance readings greater than or equal to two-fold the control were considered bacterial growth. […] CDD-97 was tested for its synergistic ability by determining AMP MICs with a range of CDD-97 concentrations (up to 256 μg/ml).
Impermeability of the outer membrane to small molecules is a major challenge for the development of therapeutics for Gram-negative bacterial infections. β-lactamases, including OXA-48, reside in the periplasmic space and so inhibitors must traverse the outer membrane to be effective. To determine whether low permeability caused the poor in vivo activity of CDD-97, an accumulation assay (Richter, et al., 2017, Nature 545:299-304) was performed to quantify the amount of CDD-97 present in E. coli cells after incubation. In the assay, tetracycline was used as a positive control while fusidic acid and clindamycin were used as negative controls (Richter, et al., 2017, Nature 545:299-304). Controls and CDD-97 were separately incubated with wildtype E. coli (MG1655) cells and then these cells were centrifuged through silicone oil to separate free, unaccumulated compound from the cell pellet. Cell lysates were collected by freeze-thawing and analyzed by mass spectrometry to quantify the amount of accumulated compound. Compared to tetracycline, CDD-97 was present in cells at 20-fold lower levels (FIG. 6B). […] The finding that CDD-97 accumulates inefficiently across the outer membrane was also examined by adding sub-lethal concentrations of colistin to the ampicillin/CDD-97 MIC assays. Colistin is known to disrupt the outer membrane and enhance permeability in E. coli. If the outer membrane is a barrier for CDD-97, it was predicted that the addition of sub-lethal concentrations of colistin would enhance the activity of CDD-97 against E. coli. […]
(In general: In broth dilution the organism is exposed to a series of concentrations in liquid medium.)

Assay [3] has as its target T2, OXA-58 (Acinetobacter baumannii, UniProt Q2TR58).
T2 construct: His-tag (N, cleaved yes); made in house; host or cells: E. coli BL21 (DE3), pET28a
Kind of assay: Inhibition of other OXA enzymes (nitrocefin reporter): OXA-58. Format: biochemical. How it is done: as §1, §2

T2 sequence (Q2TR58 19-280): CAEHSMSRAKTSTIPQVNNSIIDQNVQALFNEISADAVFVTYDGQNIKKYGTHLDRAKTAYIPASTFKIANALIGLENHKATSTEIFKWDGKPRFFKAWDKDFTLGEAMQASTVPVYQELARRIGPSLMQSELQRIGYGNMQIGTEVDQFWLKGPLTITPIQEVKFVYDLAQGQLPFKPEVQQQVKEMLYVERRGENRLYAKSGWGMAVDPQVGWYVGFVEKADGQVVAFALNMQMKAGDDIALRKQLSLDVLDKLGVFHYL
T1 sequence (Q8RLA6 entry or part of it): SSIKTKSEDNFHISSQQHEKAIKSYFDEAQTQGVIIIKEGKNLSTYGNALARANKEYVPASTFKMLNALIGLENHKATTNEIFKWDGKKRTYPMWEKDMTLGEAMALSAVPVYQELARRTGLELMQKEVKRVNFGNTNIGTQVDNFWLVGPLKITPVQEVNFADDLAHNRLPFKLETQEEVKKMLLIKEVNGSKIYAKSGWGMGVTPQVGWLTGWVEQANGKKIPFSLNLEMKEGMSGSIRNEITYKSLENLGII

Broadly, the Ki is the dissociation constant of the complex between target and ligand, obtained from inhibition or displacement. Low values mean tighter binding, high ones weaker binding. As for `CCOc1ccccc1N1CCN(c2ncnc(N3CCC(C(=O)O)CC3)n2)CC1` [CDD-97, 1-(4-(4-(2-ethoxyphenyl)piperazin-1-yl)-1,3,5-triazin-2-yl)piperidine-4-carboxylic acid], the Ki stood at 14 ± 1 µM in assay [1] and 45 ± 0.8 µM in assay [3]. Also, in assay [2] (E. coli expressing OXA-48, CDD-97 up to 256 μg/mL, avibactam up to 4 μg/mL), the “synergy with β-lactam antibiotics (effect on AMP/IMP MIC) in words” value was “did not synergize with ampicillin; also recorded: no synergy was seen between CDD-97 and imipenem; also recorded: colistin potentiates the activity of CDD-97; also recorded: synergizes weakly”. Besides, the MIC came to 1020 µg/mL in assay [2] (MG1655OXA48, read-out: AMP MIC, with 4 μg/mL CDD-97); 512 µg/mL in assay [2] (MG1655OXA48, read-out: AMP MIC, with 8 μg/mL CDD-97); 512 µg/mL in assay [2] (MG1655OXA48, read-out: AMP MIC, with 16 μg/mL CDD-97); 512 µg/mL in assay [2] (MG1655OXA48, read-out: AMP MIC, with 32 μg/mL CDD-97); 512 µg/mL in assay [2] (MG1655OXA48, read-out: AMP MIC, with 64 μg/mL CDD-97); 512 µg/mL in assay [2] (MG1655OXA48, read-out: AMP MIC, with 128 μg/mL CDD-97). Besides, the MIC worked out at 512 µg/mL in assay [2] (MG1655OXA48, read-out: AMP MIC, with 256 μg/mL CDD-97); 1020 µg/mL in assay [2] (MG1655OXA48, read-out: AMP MICs, (+) CDD-97 (16 μg/mL), colistin 0 μg/mL); 512 µg/mL in assay [2] (MG1655OXA48, read-out: AMP MICs, (+) CDD-97 (16 μg/mL), colistin 0.0625 μg/mL); 1020 µg/mL in assay [2] (MG1655OXA48, read-out: AMP MICs, (+) CDD-97 (16 μg/mL), colistin 0.125 μg/mL); 256 µg/mL in assay [2] (MG1655OXA48, read-out: AMP MICs, (+) CDD-97 (16 μg/mL), colistin 0.25 μg/mL); 128 µg/mL in assay [2] (MG1655OXA48, read-out: AMP MICs, (+) CDD-97 (16 μg/mL), colistin 0.5 μg/mL). For the same compound, the MIC in assay [2] (MG1655OXA48, read-out: AMP MICs, (+) CDD-97 (16 μg/mL), colistin 1 μg/mL) stood at 8 µg/mL; in assay [2] (MG1655OXA48, read-out: IMP MIC, with 4 μg/mL CDD-97), 0.625 µg/mL; in assay [2] (MG1655OXA48, read-out: IMP MIC, with 8 μg/mL CDD-97), 0.312 µg/mL; in assay [2] (MG1655OXA48, read-out: IMP MIC, with 16 μg/mL CDD-97) it was 0.312 µg/mL; in assay [2] (MG1655OXA48, read-out: IMP MIC, with 32 μg/mL CDD-97), 0.312 µg/mL; in assay [2] (MG1655OXA48, read-out: IMP MIC, with 64 μg/mL CDD-97), 0.312 µg/mL. The MIC in assay [2] (MG1655OXA48, read-out: IMP MIC, with 128 μg/mL CDD-97) was 0.312 µg/mL; in assay [2] (MG1655OXA48, read-out: IMP MIC, with 256 μg/mL CDD-97) it was 0.625 µg/mL. The “Ki fold less potent than against OXA-48” value in assay [3] (OXA-58 vs OXA-48) was “about 100 fold”.
